Literature values, collected in publication PMC7909736 (Pharmaceutical Research, 2021).

Conditions: share rate of 10 s^−1, room temperature

Viscosity: 0.47 Pa·s
Compound: CC(=CCCCOCC(O)CO)CCCC(C)CCCC(C)C (stereo not shown) [Formulation C17MGE, mono-O-(5,9, 13-trimethyl-4-tetradecenyl) glycerol ester]
